The results in this text go back to patent US8563738B2, “Ligands for copper-catalyzed azide-alkyne cycloaddition reactions” (The Scripps Research Institute, priority 2007, dated 2013).

Entries after “also recorded” stand apart in the source; their conditions may differ.

The nature of experiment [1]: Second-order rate constants of CuAAC reaction by LC-MS of quenched aliquots. As to conditions: 4:1 DMSO:buffer, Tris buffer over a standard range of concentrations.
Experiment [2] can be described thus: Ligand screening by reaction calorimetry (peak reaction power). Further details: key to calorimetry ligand category: reactions that failed to produce a signal in the calorimeter were classified as identifying “inactive” ligands; moderate: give observable, but not very strong, calorimetry signals. As to conditions: 65° C. From the text:
Reaction calorimetry was used to evaluate the relative merits of various ligands under practical conditions of organic synthesis, e.g., involving high concentrations of azide and alkyne reagents and low loadings of catalyst. After correction for instrumental heat transfer parameters, thermograms provide a direct real-time measure of reaction rate (power output); integration gives the overall time-vs.-completion curve. […] All such measurements were made in the same 4:1 DMSO:aqueous solvent as before, but at 65° C. rather than room temperature, in order to keep the product triazole in solution at the higher concentrations used.
Calorimetry was performed in an Omnical INSIGHT® 10-channel reaction calorimeter using 40 mL glass vials. In a typical run all the reaction components but one were introduced into the vials inside an inert atmosphere glovebox, and vials were sealed with septum caps. The last reaction component to be added was placed in a Hamilton gastight syringe. The vials and syringes were then allowed to equilibrate inside the preheated instrument (65° C.) for 30 minutes. The reaction was started in all vials by depressing all of the syringes simultaneously. Two vials out of ten were charged only with solvent to obtain readings allowing for compensation for the heat of mixing. The thermograms registered in these two channels upon addition of the last component were used to construct the baseline for the other 8 channels.
Since heat is not transferred to the instrument sensor instantaneously, the thermogram registered by the instrument is dependent on the characteristics of the instrument and reaction vessel. Correction for these extraneous factors must be applied to the recorded thermograms to obtain instrument-independent data (Rosner, T.; et al. J. Am. Chem. Soc. 2001, 123, 1848-1855; Liu, J.-S.; et al. Thermochimica Acta 1994, 236, 113-122). The appropriate dynamic correction function is built into the instrument operating software. Use of vendor supplied software produces the same result as manual correction.
By the same token, catalysts such as Cu.1 that give observable, but not very strong, calorimetry signals cannot be fully analyzed by converting thermograms to completion curves, because a significant amount of the total energy output is lost below the detection threshold of the instrument. TBTA (1) falls into this category, classified as “moderate” ligands. […] However, peak power values (i.e., maximum reaction rate) provided a reproducible relative measure of relative catalytic efficiency.
Ligands were screened under the following conditions: 250 mM benzyl azide, 454 mM phenylacetylene, 2 mM CuSO4, 4 mM ligand, 25 mM sodium ascorbate. Phenylacetylene was the last component added. Initial screening was performed with at least two independent trials for each ligand. Candidates showing promising activity were then examined with at least three independent trials to obtain reliable estimations of experimental error.

Regarding `c1ccc(Cn2cc(CN(Cc3cn(Cc4ccccc4)nn3)Cc3cn(Cc4ccccc4)nn3)nn2)cc1` [TBTA (1), tris((1-benzyl-1H-1,2,3-triazol-4-yl)methyl)amine, reference compound], the “effect of Tris buffer on rate” value in experiment [1] was “slowed significantly”. Also, the calorimetry ligand category entry in experiment [2] (250 mM benzyl azide, 454 mM phenylacetylene, 2 mM CuSO4, 4 mM ligand, 25 mM sodium ascorbate) is on record as “moderate”. In experiment [2] (high reactant concentrations, 1% Cu, 4:1 DMSO:aqueous), the “relative catalytic activity by calorimetry” value is on record as “sluggish catalyst compared to many of the others tested; also recorded: lower half of the ligands tested”.
